Test results published in patent US20150274834A1, “COMBINATION THERAPY OF AN AFUCOSYLATED CD20 ANTIBODY WITH FLUDARABINE AND/OR MITOXANTRONE” (Roche Glycart AG, priority 2009, published 2015).

Columns and labels:
[1] = test system: NHL cell lines (Granta-519, HBL-2, Jeko-1, Rec-1, Z-138, Karpas-422); assay: Trypan blue exclusion viability/proliferation test, NHL cell line panel; assay type: cell-based; details: chemotherapeutic alone (Fludarabine 0.25 μg/ml; Mitoxantrone 0.25 and 0.5 μg/ml), across cell lines
Excerpt: The following Non-Hodgkin Lymphoma (NHL) cell lines were used in the experiments: Granta-519, HBL-2, Rec-1 and Z-138 as Mantle Cell Lymphoma cell lines and a Karpas-422 as a Diffuse Large B-Cell Lymphoma cell line. All cell lines were obtained from the “Deutsche Sammlung von Mikroorganismen and Zellkulturen GmbH” (DSMZ), Braunschweig, Germany. […] Granta 519, HBL-2, JeKo-1, Rec-1 and Z-138 were cultivated in RPMI-1640 medium with 10% heat-inactivated FCS and 1% Penicillin/Streptomycin. The density of viable cells was determined with BeckmanCoulter ViCell™ Cell Viability Analyzer on the basis of the trypan blue cell exclusion method. The test is based on the principle that viable cells have an intact cell membrane that blocks the uptake of trypan blue whereas dead cells have lost this ability. Therefore viable cells have a transparent cytoplasm whereas dead cells can be identified due to their blue cytoplasm. […] Trypan-blue exclusion tests were used to analyze cell viability. […] These concentrations were determined in pre-experiments on MCL cells • 1. 0.25 μg/ml Fludarabine • 2. 0.25 and 0.5 μg/ml Mitoxantrone 1 ml samples were taken at 0 h, 24 h, 48 h, 72 h every day and the number of viable cells was determined. […] Experiments were independently performed three times.

Jeko-1 MCL cells = assay: Trypan blue exclusion viability/proliferation test, Jeko-1; assay type: cell-based; details: mono-exposure 1 μg/ml
Procedure: (§1) All cell lines were stored according to standard procedures and cultivated at 37° C., 5% CO2- and 95% relative humidity in a CO2 incubator. Granta 519, HBL-2, JeKo-1, Rec-1 and Z-138 were cultivated in RPMI-1640 medium with 10% heat-inactivated FCS and 1% Penicillin/Streptomycin.
(§2) The density of viable cells was determined with BeckmanCoulter ViCell™ Cell Viability Analyzer on the basis of the trypan blue cell exclusion method. The test is based on the principle that viable cells have an intact cell membrane that blocks the uptake of trypan blue whereas dead cells have lost this ability. Therefore viable cells have a transparent cytoplasm whereas dead cells can be identified due to their blue cytoplasm.
(§3) Trypan-blue exclusion tests were used to analyze cell viability.
(§4) These concentrations were determined in pre-experiments on MCL cells • 1. 0.25 μg/ml Fludarabine • 2. 0.25 and 0.5 μg/ml Mitoxantrone
1 ml samples were taken at 0 h, 24 h, 48 h, 72 h every day and the number of viable cells was determined. The reduction of cell proliferation was used for a fractional product calculation (synergism >0.1; additive effect −0.1<x<0.1; antagonism <−0.1). Experiments were independently performed three times.

HBL-2 MCL cells = assay: Trypan blue exclusion viability/proliferation test, HBL-2; assay type: cell-based; details: mono-exposure 1 μg/ml
Procedure: (§5) The following Non-Hodgkin Lymphoma (NHL) cell lines were used in the experiments: Granta-519, HBL-2, Rec-1 and Z-138 as Mantle Cell Lymphoma cell lines and a Karpas-422 as a Diffuse Large B-Cell Lymphoma cell line. All cell lines were obtained from the “Deutsche Sammlung von Mikroorganismen and Zellkulturen GmbH” (DSMZ), Braunschweig, Germany.
as §1, §2, §3, §4
(§6) 1 ml samples were taken at 0 h, 24 h, 48 h, 72 h every day and the number of viable cells was determined. […]

Granta-519 MCL cells = assay: Trypan blue exclusion viability/proliferation test, Granta-519; assay type: cell-based; details: mono-exposure 1 μg/ml
Procedure: as §5, §1, §2, §3, §4, §6

[2] = test system: human Z138 mantle cell lymphoma xenograft; assay: Tumor growth inhibition study in vivo, Z138 xenograft; parameters: species or system SCID beige mice; details: day 36 after tumor cell inoculation; antibodies 1 mg/kg i.v. day 22 and 29; fludarabine 40 mg/kg i.p. day 22-25
Procedure: Antibody buffer included histidine, trehalose and polysorbate 20.
Cells were co-injected with Matrigel.
Experimental study protocol was reviewed and approved by local government. […] Continuous health monitoring was carried out on regular basis. Diet food (Provimi Kliba 3337) and water (acidified pH 2.5-3) were provided ad libitum.
Animals were controlled daily for clinical symptoms and detection of adverse effects.
The corresponding vehicle was administered on the same days.

Rec-1 MCL cells = assay: Trypan blue exclusion viability/proliferation test, Rec-1; assay type: cell-based; details: mono-exposure 1 μg/ml
Procedure: as §5, §1, §2, §3, §4, §6

Compound	cell reduction [1]	cell reduction (Jeko-1 MCL cells) [%]	cell reduction (HBL-2 MCL cells)	cell reduction (Granta-519 MCL cells)	tumor growth inhibition compared to the control group [2] [%]	cell reduction (Rec-1 MCL cells)
O=C1c2c(O)ccc(O)c2C(=O)c2c(NCCNCCO)ccc(NCCNCCO)c21 [Mitoxantrone, 1,4-dihydroxy-5,8-bis[2-(2-hydroxyethylamino)ethylamino]-anthracene-9,10-dione]	80-95%	–	–	–	–	–
B-HH6-B-KV1 GE: afucosylated type II anti-CD20 antibody; humanized B-Ly1 IgG1, VH SEQ ID NO: 7 (B-HH6), VL SEQ ID NO: 20 (B-KV1), glycoengineered	–	5	20-30%	65-75%	86	30-45%
